Laboratory results published in US10208033B2, “β-carboline, dihydro-β-carboline and tetrahydro-β-carboline alkaloid derivatives and preparation methods same and use in aspects of preventing and treating plant viruses, fungicides and insecticides” (NANKAI UNIVERSITY, priority 2013, dated 2019).
Read-outs that look alike come from different tables or passages of the source.

Legend:
armyworms = format: in vivo; settings: concentration 600 mg/kg
[1] = tested on: tobacco mosaic virus (TMV); assay: Anti-TMV in vivo inactivation; set-up: species or system tobacco mosaic virus (host Nicotiana tabacum L.cv.Xanthi NN)
Fusarium fujikuroi = assay: Fungicidal (bactericidal) activity in vitro, PDA colony diameter; format: cell-based
cotton bollworms = assay: whole plant or invertebrate; settings: for Cotton bollworm Mortality (%): concentration 600 mg/kg
Protocol: Experimental method of cotton bollworms: feed and drug mixing method: measure 3 mL of prepared solution and add it to about 27 g of newly prepared feed, thereby obtaining needed concentration through dilution by 10 times.

mosquito larvae = assay: whole plant or invertebrate
Outline: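 Early fourth-instar Culex pipiens pallens larvae from an indoor colony, 10 per beaker, exposed to test compound at 5 ppm in water, diluted from a 1000 ppm acetone mother solution. Blank: water containing 0.5 mL test solvent.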

corn borers [2] = settings: concentration 600 mg/kg
Macrophoma kawatsukai = assay: Fungicidal (bactericidal) activity in vitro, PDA colony diameter; format: cell-based; settings: 50 mg/kg
Fusarium graminearumt = assay: microbe, parasite or virus in culture; format: cell-based; settings: for Bactericidal activity (%) Fusarium graminearumt: 50 mg/kg
[3] = tested on: tobacco mosaic virus (TMV); assay: Anti-TMV in vivo therapeutic effect; set-up: species or system tobacco mosaic virus (host Nicotiana tabacum L.cv.Xanthi NN)
[4] = tested on: tobacco mosaic virus (TMV); assay: Anti-TMV in vitro effect (half-leaf soaking); format: cell-based, tobacco mosaic virus (host Nicotiana tabacum L.cv.Xanthi NN)
Cercospora arachidicola = assay: Fungicidal (bactericidal) activity in vitro, PDA colony diameter; format: cell-based; settings: 50 mg/kg
Alternaria solani = assay: as above; format: cell-based; settings: 50 mg/kg
potato late blight = assay: microbe, parasite or virus in culture; format: cell-based
Bipolaria maydis = assay: organism not typed; format: cell-based; settings: for Bactericidal activity (%) Bipolaria maydis: 50 mg/kg
Phytophthora capsici = assay: Fungicidal (bactericidal) activity in vitro, PDA colony diameter; format: cell-based; settings: 50 mg/kg
Rhizoctonia cereali = assay: as above; format: cell-based; settings: 50 mg/kg
[5] = tested on: Colletotrichum orbiculare; assay: as above; format: cell-based; settings: 50 mg/kg
Rhizoctonia solani = assay: as above; format: cell-based; settings: 50 mg/kg
Sclerotinia scleotiorum = assay: as above; format: cell-based; settings: 50 mg/kg
Botrytis cinerea = assay: as above; format: cell-based; settings: 50 mg/kg
[6] = tested on: tobacco mosaic virus (TMV); assay: Anti-TMV in vivo protective effect; set-up: species or system tobacco mosaic virus (host Nicotiana tabacum L.cv.Xanthi NN)
[7] = tested on: armyworms, cotton bollworms and corn borers; assay: Insecticidal activity, overall statements on Table 3; format: in vivo; settings: Table 3, 600 mg/kg
cucumber fusarium wilt = assay: Fungicidal (bactericidal) activity in vitro, PDA colony diameter; format: cell-based; settings: 50 mg/kg
corn borers [8] = assay: whole plant or invertebrate; settings: read-out: Corn borer Mortality (%)
[9] = Culex pipiens, 24 h, read-out: Mosquito larvae Mortality (%)

C[C@@H]1N[C@H](C(=O)NCC2CCCO2)Cc2c1[nH]c1ccccc21 (stereo partly drawn) [Ib-20, (1S, 3S)—N-((tetrahydrofuran-2)-methyl)-1-methyl-2,3,4,9-tetrahydro-pyridino [3,4-b] indol-3-formamide]
Armyworm Mortality (%) (armyworms): 65%
Relative inhibition rate (%) In vivo inactivation ([1]; treatment dose 100 μg/mL): 9.8%
Relative inhibition rate (%) In vivo inactivation ([1]; treatment dose 500 μg/mL): 39.1%
Bactericidal activity (%) Fusarium fujikuroi (Fusarium fujikuroi; 50 mg/kg): 21.4%
Cotton bollworm Mortality (%) (cotton bollworms): 30%
Mosquito larvae Mortality (%) (mosquito larvae; concentration 5 mg/kg, 24 h): 40%
Mosquito larvae Mortality (%) (mosquito larvae; concentration 10 mg/kg, 24 h): 100%
Corn borer Mortality (%) (corn borers [2]): 60%
Bactericidal activity (%) Macrophoma kawatsukai (Macrophoma kawatsukai): 27.8%
Bactericidal activity (%) Fusarium graminearumt (Fusarium graminearumt): 24.1%
Relative inhibition rate (%) In vivo therapy ([3]; treatment dose 100 μg/mL): 0%
Relative inhibition rate (%) In vivo therapy ([3]; treatment dose 500 μg/mL): 34.2%
Relative inhibition rate (%) In vitro activity ([4]; treatment dose 100 μg/mL): 0%
Relative inhibition rate (%) In vitro activity ([4]; treatment dose 500 μg/mL): 37.5%
Bactericidal activity (%) Cercospora arachidicola (Cercospora arachidicola): 23.5%
Bactericidal activity (%) Alternaria solani (Alternaria solani): 20.0%
Bactericidal activity (%) potato late blight (potato late blight): 20.0%
Bactericidal activity (%) Bipolaria maydis (Bipolaria maydis): 16.0%
Bactericidal activity (%) Phytophthora capsici (Phytophthora capsici): 18.4%
Bactericidal activity (%) Rhizoctonia cereali (Rhizoctonia cereali): 47.1%
Bactericidal activity (%) Colletotrichum orbiculare [5]: 18.5%
Bactericidal activity (%) Rhizoctonia solani (Rhizoctonia solani): 13.2%
Bactericidal activity (%) Sclerotinia scleotiorum (Sclerotinia scleotiorum): 0.0%
Bactericidal activity (%) Botrytis cinerea (Botrytis cinerea): 36.4%
Relative inhibition rate (%) In vivo protection ([6]; treatment dose 100 μg/mL): 0%
Relative inhibition rate (%) In vivo protection ([6]; treatment dose 500 μg/mL): 29.6%
activity against armyworms, cotton bollworms and corn borers (in words) [7]: broad-spectrum activity
Bactericidal activity (%) Cucumber fusarium wilt (cucumber fusarium wilt): 15.4%

C[C@@H]1N[C@H](C(=O)N/N=C/c2ccccc2)Cc2c1[nH]c1ccccc21 [Ic-1, (1S, 3S)—N′-benzylidene-1-methyl-2,3,4,9-tetrahydropyridino [3,4-b] indol-3-formylhydrazine]
Armyworm Mortality (%) (armyworms): 75%
inhibition at 100 µg/mL ([1]; Tobacco mosaic virus, treatment dose 100 μg/mL, read-out: Relative inhibition rate (%) In vivo inactivation): 19.6%
inhibition at 500 µg/mL ([1]; Tobacco mosaic virus, treatment dose 500 μg/mL, read-out: Relative inhibition rate (%) In vivo inactivation): 56.3%
inhibition of growth at 50 mg/kg (Fusarium fujikuroi; Fusarium fujikuroi, 96 h, 50 mg/kg): 58.8%
mortality at 600 mg/kg (cotton bollworms; Helicoverpa armigera, in Gossypium hirsutum, read-out: Cotton bollworm Mortality (%)): 55%
mortality at 5 mg/kg (mosquito larvae; [9]): 80%
mortality at 10 mg/kg (mosquito larvae; [9]): 100%
activity against culex pipiens larvae (in words) (mosquito larvae; at 5 mg/kg): still show high activity
inhibition at 50 mg/kg (Macrophoma kawatsukai): 36.4%
mortality at 600 mg/kg (corn borers [8]): 60%
inhibition of growth at 50 mg/kg (Fusarium graminearumt; Fusarium, 96 h, read-out: Bactericidal activity (%) Fusarium graminearumt): 53.8%
inhibition at 100 µg/mL ([3]; Tobacco mosaic virus, treatment dose 100 μg/mL, read-out: Relative inhibition rate (%) In vivo therapy): 16%
inhibition at 500 µg/mL ([3]; Tobacco mosaic virus, treatment dose 500 μg/mL, read-out: Relative inhibition rate (%) In vivo therapy): 51.5%
inhibition at 100 µg/mL ([4]; Tobacco mosaic virus, treatment dose 100 μg/mL, read-out: Relative inhibition rate (%) In vitro activity): 28.4%
inhibition at 500 µg/mL ([4]; Tobacco mosaic virus, treatment dose 500 μg/mL, read-out: Relative inhibition rate (%) In vitro activity): 55.8%
inhibition of growth at 50 mg/kg (Cercospora arachidicola; Mycosphaerella arachidis, 96 h): 72.7%
inhibition of growth at 50 mg/kg (Alternaria solani; Alternaria solani, 96 h): 57.1%
inhibition of growth at 50 mg/kg (potato late blight; Phytophthora infestans, 96 h, read-out: Bactericidal activity (%) potato late blight): 30.4%
inhibition at 50 mg/kg (Bipolaria maydis; read-out: Bactericidal activity (%) Bipolaria maydis): 60%
inhibition of growth at 50 mg/kg (Phytophthora capsici; Phytophthora capsici, 96 h): 69.7%
inhibition of growth at 50 mg/kg (Rhizoctonia cereali; Rhizoctonia, 96 h): 86.5%
inhibition of growth at 50 mg/kg ([5]; Colletotrichum orbiculare, 96 h): 52%
inhibition of growth at 50 mg/kg (Rhizoctonia solani; Rhizoctonia solani, 96 h): 48.6%
inhibition of growth at 50 mg/kg (Sclerotinia scleotiorum; Sclerotinia, 96 h): 26.9%
inhibition of growth at 50 mg/kg (Botrytis cinerea; Botrytis cinerea, 96 h): 88.9%
inhibition at 100 µg/mL ([6]; Tobacco mosaic virus, treatment dose 100 μg/mL, read-out: Relative inhibition rate (%) In vivo protection): 21.8%
inhibition at 500 µg/mL ([6]; Tobacco mosaic virus, treatment dose 500 μg/mL, read-out: Relative inhibition rate (%) In vivo protection): 53.2%
activity against armyworms, cotton bollworms and corn borers (in words) [7]: broad-spectrum activity
inhibition of growth at 50 mg/kg (cucumber fusarium wilt; Fusarium, 96 h): 36.4%

COc1ccc(C=NNC(=O)[C@@H]2Cc3c([nH]c4ccccc34)[C@H](C)N2)cc1OC [Ic-11, (1S, 3S)—N′-(3,4-dimethoxybenzylidene)-1-methyl-2,3,4,9-tetrahydropyridino [3,4-b] indol-3-formylhydrazine]
Armyworm Mortality (%) (armyworms): 65%
Relative inhibition rate (%) In vivo inactivation ([1]; treatment dose 100 μg/mL): 20.3%
Relative inhibition rate (%) In vivo inactivation ([1]; treatment dose 500 μg/mL): 47.1%
Bactericidal activity (%) Fusarium fujikuroi (Fusarium fujikuroi): 47.1%
Cotton bollworm Mortality (%) (cotton bollworms): 40%
Mosquito larvae Mortality (%) (mosquito larvae; concentration 5 mg/kg, 24 h): 40%
Mosquito larvae Mortality (%) (mosquito larvae; concentration 10 mg/kg, 24 h): 100%
Corn borer Mortality (%) (corn borers [2]): 55%
Bactericidal activity (%) Macrophoma kawatsukai (Macrophoma kawatsukai): 66.7%
Bactericidal activity (%) Fusarium graminearumt (Fusarium graminearumt): 30.8%
Relative inhibition rate (%) In vivo therapy ([3]; treatment dose 100 μg/mL): 16.2%
Relative inhibition rate (%) In vivo therapy ([3]; treatment dose 500 μg/mL): 40.5%
Relative inhibition rate (%) In vitro activity ([4]; treatment dose 100 μg/mL): 7.8%
Relative inhibition rate (%) In vitro activity ([4]; treatment dose 500 μg/mL): 37.2%
Bactericidal activity (%) Cercospora arachidicola (Cercospora arachidicola): 45.5%
Bactericidal activity (%) Alternaria solani (Alternaria solani): 52.4%
Bactericidal activity (%) potato late blight (potato late blight): 30.4%
Bactericidal activity (%) Bipolaria maydis (Bipolaria maydis): 52.0%
Bactericidal activity (%) Phytophthora capsici (Phytophthora capsici): 84.8%
Bactericidal activity (%) Rhizoctonia cereali (Rhizoctonia cereali): 89.2%
Bactericidal activity (%) Colletotrichum orbiculare [5]: 72.0%
Bactericidal activity (%) Rhizoctonia solani (Rhizoctonia solani): 44.4%
Bactericidal activity (%) Sclerotinia scleotiorum (Sclerotinia scleotiorum): 21.2%
Bactericidal activity (%) Botrytis cinerea (Botrytis cinerea): 66.7%
Relative inhibition rate (%) In vivo protection ([6]; treatment dose 100 μg/mL): 11%
Relative inhibition rate (%) In vivo protection ([6]; treatment dose 500 μg/mL): 42.3%
activity against armyworms, cotton bollworms and corn borers (in words) [7]: broad-spectrum activity
Bactericidal activity (%) Cucumber fusarium wilt (cucumber fusarium wilt): 22.7%
